For data set [1], the target named is Sodium-dependent serotonin transporter (Homo sapiens, UniProt P31645). Description: Displacement of [3H]citalopram from human recombinant SERT scintillation proximity assay. For orientation: Loss of bound radioactivity is the signal in a displacement assay; it reports binding, not function.
Data set [2] is described as follows: Oral absorption in rat. It counts as ADME, organism-based. As to conditions: in vivo.
In data set [3] the target is Cytochrome P450 2C19 (Homo sapiens, UniProt P33261). Description: Inhibition of human CYP2C19 incubated for 10 mins before substrate addition by fluorescence assay.
Data set [4] in a line: Volume of distribution in rat. It counts as ADME, organism-based. As to conditions: in vivo.
Data set [5] deals with Sodium-dependent noradrenaline transporter (Homo sapiens, UniProt P23975). Description: Displacement of [3H]nisoxetine from human recombinant NET by scintillation proximity assay.
The target in data set [6] is Cytochrome P450 2D6 (Homo sapiens, UniProt P10635). Description: Inhibition of human CYP2D6 incubated for 10 mins before substrate addition by fluorescence assay.
Data set [7] is described as follows: Half life in rat. As to conditions: in vivo. It is filed as ADME, organism-based.
The target in data set [8] is T1, Cytochrome P450 1A2 (Homo sapiens, UniProt P05177).
T1 sequence (P05177 whole entry): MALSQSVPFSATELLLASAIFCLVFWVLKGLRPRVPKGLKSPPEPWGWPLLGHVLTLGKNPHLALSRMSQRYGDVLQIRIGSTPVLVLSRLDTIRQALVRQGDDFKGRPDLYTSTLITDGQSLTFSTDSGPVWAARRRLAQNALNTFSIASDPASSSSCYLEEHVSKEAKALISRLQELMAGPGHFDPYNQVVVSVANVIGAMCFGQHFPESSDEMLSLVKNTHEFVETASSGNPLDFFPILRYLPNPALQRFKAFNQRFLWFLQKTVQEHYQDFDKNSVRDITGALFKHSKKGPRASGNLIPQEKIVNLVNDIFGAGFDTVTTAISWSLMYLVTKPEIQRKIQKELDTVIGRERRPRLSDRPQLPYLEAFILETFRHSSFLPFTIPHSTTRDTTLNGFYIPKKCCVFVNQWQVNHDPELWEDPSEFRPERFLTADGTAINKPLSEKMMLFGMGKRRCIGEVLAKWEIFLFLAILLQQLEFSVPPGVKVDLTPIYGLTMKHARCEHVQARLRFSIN
Description: Inhibition of human CYP1A2 incubated for 10 mins before substrate addition by fluorescence assay.

Data set [9] has as its target Cytochrome P450 2C9 (Homo sapiens, UniProt P11712). Description: Inhibition of human CYP2C9 incubated for 10 mins before substrate addition by fluorescence assay.
Data set [10] is described as follows: Blood clearance in rat. It counts as ADME, organism-based.
In data set [11] the target is Cytochrome P450 3A4 (Homo sapiens, UniProt P08684). Description: Inhibition of human CYP3A4 incubated for 10 mins before substrate addition by fluorescence assay.
Data set [12] can be described thus: Hepatic extraction ratio in rat. The conditions noted are these: in vivo.
The nature of data set [13]: Oral bioavailability in rat. It is filed as ADME, organism-based. As to conditions: in vivo.
In data set [14] the target is Sodium-dependent dopamine transporter (Homo sapiens, UniProt Q01959). Description: Displacement of [3H]WIN-35428 from human recombinant DAT by scintillation proximity assay.
Data set [15] is described as follows: Ratio of drug level in brain to blood in rat after 1 hr. It counts as ADME, tissue-based. The conditions noted are these: read-out: BBR.
In data set [16] the test system is Liver microsomes. Description: Intrinsic clearance in rat liver microsomes assessed per mg of protein at 0.5 uM for 30 mins by HPLC-MS/MS analysis in presence of NADPH. It counts as ADME, Microsome. The conditions noted are these: 0.5 h.
Data set [17] concerns Liver microsomes. Description: Intrinsic clearance in human liver microsomes assessed per mg of protein at 0.5 uM for 30 mins by HPLC-MS/MS analysis in presence of NADPH. It counts as ADME, Microsome. The conditions noted are these: 0.5 h. On the technique in general: Liver microsomes are vesicles of endoplasmic reticulum, rich in cytochrome P450 enzymes.

The Ki is the dissociation constant of the complex between target and ligand, obtained from inhibition or displacement. The term IC50 denotes the concentration that gives 50% inhibition. The term Vd denotes a proportionality between amount in the body and measured concentration, not a real space. The half-life is how long it takes for the measured level to halve. Lower therefore signals rapid decline. The clearance is the rate of elimination divided by the concentration. High values mean a high capacity for elimination, low ones a low capacity for elimination. In general, bioavailability refers to the share of a dose that reaches the circulation, judged against a reference dose that is usually intravenous.

Sodium-dependent dopamine transporter, sequence (Q01959 whole entry): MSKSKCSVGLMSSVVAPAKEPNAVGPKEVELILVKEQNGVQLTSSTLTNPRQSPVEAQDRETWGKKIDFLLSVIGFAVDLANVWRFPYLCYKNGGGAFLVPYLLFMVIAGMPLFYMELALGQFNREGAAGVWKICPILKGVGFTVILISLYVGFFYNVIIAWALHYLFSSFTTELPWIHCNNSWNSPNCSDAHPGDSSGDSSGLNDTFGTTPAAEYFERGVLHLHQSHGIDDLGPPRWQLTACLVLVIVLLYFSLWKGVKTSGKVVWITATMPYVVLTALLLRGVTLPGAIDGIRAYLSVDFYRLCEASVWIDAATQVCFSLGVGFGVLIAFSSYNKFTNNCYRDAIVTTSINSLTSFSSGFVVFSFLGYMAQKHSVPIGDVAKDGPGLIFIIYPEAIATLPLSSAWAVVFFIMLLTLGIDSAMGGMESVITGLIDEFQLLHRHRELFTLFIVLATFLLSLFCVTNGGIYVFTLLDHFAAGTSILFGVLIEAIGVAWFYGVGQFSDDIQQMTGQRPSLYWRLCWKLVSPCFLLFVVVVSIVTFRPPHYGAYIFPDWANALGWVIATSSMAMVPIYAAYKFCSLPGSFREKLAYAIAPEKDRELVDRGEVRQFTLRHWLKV
Sodium-dependent serotonin transporter, sequence (P31645 whole entry): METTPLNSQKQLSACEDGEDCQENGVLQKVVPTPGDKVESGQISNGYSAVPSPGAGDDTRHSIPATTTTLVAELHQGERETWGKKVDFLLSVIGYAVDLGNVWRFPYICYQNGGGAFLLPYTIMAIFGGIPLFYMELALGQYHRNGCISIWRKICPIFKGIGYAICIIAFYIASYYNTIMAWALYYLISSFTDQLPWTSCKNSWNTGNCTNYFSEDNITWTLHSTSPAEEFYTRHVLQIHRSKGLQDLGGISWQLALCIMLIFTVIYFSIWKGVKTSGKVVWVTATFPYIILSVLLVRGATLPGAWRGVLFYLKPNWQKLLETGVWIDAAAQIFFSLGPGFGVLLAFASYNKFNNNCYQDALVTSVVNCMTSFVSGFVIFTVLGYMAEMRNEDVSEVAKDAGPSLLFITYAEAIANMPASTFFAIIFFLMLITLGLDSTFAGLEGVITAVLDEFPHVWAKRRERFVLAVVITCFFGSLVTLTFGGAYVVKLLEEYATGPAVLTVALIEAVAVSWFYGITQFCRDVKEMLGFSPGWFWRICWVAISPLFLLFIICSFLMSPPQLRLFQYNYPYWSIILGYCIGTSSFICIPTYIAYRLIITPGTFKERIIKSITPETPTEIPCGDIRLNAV
Sodium-dependent noradrenaline transporter, sequence (P23975 whole entry): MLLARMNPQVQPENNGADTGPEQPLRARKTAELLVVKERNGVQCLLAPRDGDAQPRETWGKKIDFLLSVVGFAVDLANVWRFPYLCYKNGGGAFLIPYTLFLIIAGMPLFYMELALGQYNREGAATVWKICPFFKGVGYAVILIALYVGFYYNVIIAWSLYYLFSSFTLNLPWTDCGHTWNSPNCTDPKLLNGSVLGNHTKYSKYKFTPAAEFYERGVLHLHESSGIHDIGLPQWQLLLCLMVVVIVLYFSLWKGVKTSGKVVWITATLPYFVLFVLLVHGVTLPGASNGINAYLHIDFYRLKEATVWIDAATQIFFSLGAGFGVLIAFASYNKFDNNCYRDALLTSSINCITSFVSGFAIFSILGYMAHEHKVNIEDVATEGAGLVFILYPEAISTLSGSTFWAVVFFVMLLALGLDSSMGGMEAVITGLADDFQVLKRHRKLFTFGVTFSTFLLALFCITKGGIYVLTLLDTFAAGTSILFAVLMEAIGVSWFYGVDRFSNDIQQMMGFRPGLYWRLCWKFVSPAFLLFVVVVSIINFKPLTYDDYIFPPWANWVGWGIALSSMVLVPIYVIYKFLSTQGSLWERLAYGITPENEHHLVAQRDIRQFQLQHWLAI
Cytochrome P450 2C9, sequence (P11712 whole entry): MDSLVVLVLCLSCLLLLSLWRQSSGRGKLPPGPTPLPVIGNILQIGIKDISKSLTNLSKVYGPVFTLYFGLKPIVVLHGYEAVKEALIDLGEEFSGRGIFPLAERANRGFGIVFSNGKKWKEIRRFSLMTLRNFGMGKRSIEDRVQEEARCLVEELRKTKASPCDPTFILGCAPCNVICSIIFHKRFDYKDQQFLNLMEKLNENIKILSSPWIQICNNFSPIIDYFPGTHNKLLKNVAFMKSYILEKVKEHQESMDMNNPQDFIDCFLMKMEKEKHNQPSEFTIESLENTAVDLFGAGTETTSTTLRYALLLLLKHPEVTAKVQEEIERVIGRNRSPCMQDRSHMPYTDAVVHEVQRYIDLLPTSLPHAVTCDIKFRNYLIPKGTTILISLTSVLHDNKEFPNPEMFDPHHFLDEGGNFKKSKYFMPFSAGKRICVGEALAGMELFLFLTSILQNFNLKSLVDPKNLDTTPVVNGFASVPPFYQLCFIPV
Cytochrome P450 2C19, sequence (P33261 whole entry): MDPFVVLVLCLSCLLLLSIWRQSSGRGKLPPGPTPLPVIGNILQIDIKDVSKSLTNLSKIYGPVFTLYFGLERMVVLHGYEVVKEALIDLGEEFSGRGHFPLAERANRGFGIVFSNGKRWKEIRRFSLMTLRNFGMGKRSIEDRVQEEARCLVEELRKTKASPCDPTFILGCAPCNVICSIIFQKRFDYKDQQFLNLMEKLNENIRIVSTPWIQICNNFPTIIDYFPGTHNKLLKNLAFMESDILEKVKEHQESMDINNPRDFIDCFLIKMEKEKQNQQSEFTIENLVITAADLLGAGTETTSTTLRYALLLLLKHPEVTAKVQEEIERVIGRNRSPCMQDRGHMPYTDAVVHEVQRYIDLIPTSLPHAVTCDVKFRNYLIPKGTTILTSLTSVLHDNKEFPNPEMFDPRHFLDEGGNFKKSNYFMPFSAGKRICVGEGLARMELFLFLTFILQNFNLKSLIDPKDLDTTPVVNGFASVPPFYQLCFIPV
Cytochrome P450 2D6, sequence (P10635 whole entry): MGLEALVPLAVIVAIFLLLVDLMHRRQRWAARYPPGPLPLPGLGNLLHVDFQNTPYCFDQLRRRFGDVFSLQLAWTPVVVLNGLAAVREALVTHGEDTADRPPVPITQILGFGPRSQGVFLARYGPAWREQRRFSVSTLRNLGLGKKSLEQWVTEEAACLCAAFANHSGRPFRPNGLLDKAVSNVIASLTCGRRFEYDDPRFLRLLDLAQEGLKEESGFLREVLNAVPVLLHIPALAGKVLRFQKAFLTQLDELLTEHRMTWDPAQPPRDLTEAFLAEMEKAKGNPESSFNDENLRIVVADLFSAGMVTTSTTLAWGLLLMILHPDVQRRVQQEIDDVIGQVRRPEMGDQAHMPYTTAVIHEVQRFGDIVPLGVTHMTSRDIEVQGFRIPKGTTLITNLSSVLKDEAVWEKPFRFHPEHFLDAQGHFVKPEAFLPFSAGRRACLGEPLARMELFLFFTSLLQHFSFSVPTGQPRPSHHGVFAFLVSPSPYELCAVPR
Cytochrome P450 3A4, sequence (P08684 whole entry): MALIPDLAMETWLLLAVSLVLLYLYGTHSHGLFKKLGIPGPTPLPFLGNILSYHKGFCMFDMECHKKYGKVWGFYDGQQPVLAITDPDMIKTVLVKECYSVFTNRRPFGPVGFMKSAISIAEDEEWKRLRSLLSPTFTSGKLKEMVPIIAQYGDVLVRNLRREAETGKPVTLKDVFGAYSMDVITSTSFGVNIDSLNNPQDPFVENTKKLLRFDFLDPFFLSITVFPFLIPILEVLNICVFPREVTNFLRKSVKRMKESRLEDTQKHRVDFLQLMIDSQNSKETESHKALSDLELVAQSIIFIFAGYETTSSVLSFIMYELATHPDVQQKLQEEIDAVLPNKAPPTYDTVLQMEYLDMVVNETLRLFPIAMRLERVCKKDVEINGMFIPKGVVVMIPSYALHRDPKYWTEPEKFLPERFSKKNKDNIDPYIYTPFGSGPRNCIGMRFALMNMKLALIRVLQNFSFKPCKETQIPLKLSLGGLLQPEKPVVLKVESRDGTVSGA

As for `Cc1nc(C)n(CC23CNCC[C@]2(c2ccc(Cl)c(Cl)c2)C3)n1` (single isomer, unassigned; enantiomer 1), the Ki was 0.002 µM in data set [1], 0.0251 µM in data set [5] and 0.0158 µM in data set [14]. This compound also registered a Fa in data set [2] of 94%. Besides, the half-inhibitory concentration (IC50) in data set [3], in data set [6], in data set [8], in data set [9] and in data set [11] was above 25 µM each time. Moreover, the Vd in data set [4] is 8.1 L/kg. In [7], this compound gave a half-life of 1.7 h. In data set [10], the clearance is 3.78 L/h/kg. The hepatic extraction ratio in data set [12] worked out at 0.8. For the same compound, in data set [13], the bioavailability came out at 17%. The Kp at 1 h in data set [15] came out at 0.4.
Regarding `Cc1cc(C)n(CC23CNCC[C@]2(c2ccc(Cl)c(Cl)c2)C3)n1` (single isomer, unassigned), the values for the Ki in data set [1], in [5] and in data set [14] were 0.0002 µM, 0.001 µM and 0.00316 µM, respectively. Also, the Fa in [2] was 50%. The volume of distribution (Vd) in data set [4] came out at 6.9 L/kg. The same compound showed a half-life in data set [7] of 2.3 h. The figures for the CL in data set [16] and in data set [17] were 5.5 mL/min/g and 2.4 mL/min/g, respectively. Also, the clearance in data set [10] came out at 3.12 L/h/kg. The same compound yielded a bioavailability in data set [13] of 6%. Besides, the Kp at 1 h in [15] was determined as 0.8.
